Tested on: Varroa destructor
Test: Varroa mite contact test on Potter-tower treated Petri dishes
Assay type: in vivo
Conditions: adult V. destructor, contact with spray deposit, concentration of formulation 1 × 10^−−4 g, assessed after 72 h
Source text: Varroa mites came from bee colonies provided by a beekeeper. The mite population is kept in a dedicated apiary. For screening needs adults are collected on the same day as the beginning of experiment, either in beehive cells containing brood of worker bees or drones, or directly on bees emerging during collection.
Bee nymphs needed to feed adults of Varroa mites during experiments are choosen within the frames from which Varroa is also collected. They are collected at the stage of nymph with white or pink coloured eyes according methology described by Rembold et Kremer (Characterization of postembryonic developmental stages of the female castes of the honey bee, Apis mellifera L. Apidologie 11: 29-38).
3 cm diameter Petri dishes were used as confinement material of Varroa mites during experiments. Covers with wire mesh were put on the top of each Petri dish in order to avoid the mites to run away but also to keep favorable humidity for the bee nymph. […]
After treatment of Petri dishes, five (5) adults of V. destructor collected from the brood were placed in the petri dish. […] During a test 20 Varroa adults are tested for a given compound (4 dishes of 5 individuals).Mortality levels are assessed after 72 h (mites which are able to move their legs are considered as alive). […]

`CC1=NNC(=O)N(N=Cc2cccnc2)C1` [pymetrozine, 2,3,4,5-tetrahydro-3-oxo-4-[(pyridin-3-yl)methyleneamino]-6-methyl-1,2,4-triazine] was tested, and the “% mortality of Varroa” value was 90%.

From patent US20130210823A1, “METHODS FOR C[…]” (SYNGENTA PARTICIPATIONS AG, priority 2010, published 2013)
